# From patent publication US20060179492A1, “Method of inhibiting neural transmission mediated by serotonin-2a and enhancing sensorimotor gating” (The Regents of the University of California, priority 2002, published 2006)
# Counter-ions that a name gives are not always drawn.
# Columns and labels:
# [1] = tested on: PPI deficits produced by DOI; details: reported by Geyer et al.; cited from earlier work
# [2] = tested on: PPI deficits produced by the alpha-1 adrenergic agonist cirazoline; test: Cirazoline-induced disruption of prepulse inhibition (PPI) of the startle reflex; assay type: in vivo, Sprague Dawley rats; details: for PPI of saline/cirazoline rats versus saline/saline rats: cirazoline 0.7 mg/kg SC
# Experimental: (§1) Animals: Ninety-six male Sprague Dawley rats (250-300 grams at testing) were obtained from Harlan Laboratories, San Diego. In the experiments of Example 1, all groups contained an n of 8. Animals were housed in groups of two or three in clear plastic chambers in a climate controlled room on a 12:12 hour light/dark cycle (lights on 7:00 a.m.-7:00 p.m.). The rats were handled prior to testing. All testing occurred during the light phase of the rats' circadian illumination schedule and they were allowed free access to food and water for the extent of the study, except during the actual testing. Behavioral testing was performed between 9:00 am and 4:30 pm beginning 7 days after arrival. All studies described in this publication were carried out in accordance with the “Principles of laboratory and animal care” as described in the Guide for the Care and Use of Laboratory Animals as adopted and promulgated by the National Institutes of Health.
# (§2) Drugs: PD149163 (LysΨ(CH2NH)-Lys-Pro-Trp-tLeu-Leu-OEt) was generously made available by the NIMH Chemical Synthesis and Drug Supply Program, and SR1 International, Menlo Park, Calif. NT69L (N-methyl-Arg-Lys-Pro-L-neo-Trp-tLeu-Leu) was developed at Mayo Clinic, Jacksonville, Fla., as described in Tyler-McMahon et al. 2000. DOI and cirazoline hydrochloride were obtained from Sigma Chemicals, St. Louis, Mo. All drugs used were dissolved in saline.
# (§3) Startle Testing and Test Sessions. Startle testing was performed in four identical startle chambers obtained from San Diego Instruments (San Diego, Calif.). Each chamber consisted of a clear non-restrictive Plexiglass cylinder resting on a Plexiglass platform inside a ventilated and illuminated enclosure housed in a sound-attenuated room. A continuous background noise of 65 dB, as well as the various acoustic stimuli, was produced within each chamber by a high-frequency loudspeaker (Radio Shack Supertweeter, San Diego, Calif.). The whole-body startle response of each animal produced vibrations of the Plexiglass cylinder, which were transduced into analog signals by a piezoelectric unit, mounted underneath the Plexiglass platform (Mansbach et al., 1988). These analog signals were then digitized and stored by an interface unit connected to a microcomputer. Startle amplitude was defined as the degree of motion detected by the piezoelectric unit.
# (§4) The animals were subjected to a 5-minute acclimation to the 65 dB background noise, which continued throughout the session. The acclimation was followed by a 15 minute PPI test session. Five trial types were presented during the test session: 40 msec 120 dB startle pulses (PULSE-ALONE), startle pulses preceded 100 msecs by 20 msec prepulses of either 4, 8, or 12 dB above background, and NO-[…] trials. All trial types were presented in pseudo-random order separated by an average of 15 seconds. In addition, four PULSE-ALONE trials that were not used in the calculation of PPI values were presented at the beginning and at the end of the test session, to habituate animals to the pulse and in order to provide a measure of habituation across the session.
# PD149163 versus cirazoline. Thirty-two drug-naïve rats were administered SC injections of the following doses of PD149163, 0 (saline), 0.01, 0.1, or 1 mg/kg. Thirty minutes later, they were injected SC with either saline or cirazoline (0.7 mg/kg), a dose known to reliably disrupt PPI. Animals were tested in startle chambers thirty minutes later and PPI measured as described. […]
# [3] = tested on: alpha-1 adrenergic receptors; details: cited from earlier work
# serotonin-2A receptor = serotonin-2A receptor (Homo sapiens, UniProt P28223); details: cited from earlier work
# [4] = tested on: PPI deficits produced by the serotonin-2A agonist DOI; test: DOI-induced disruption of prepulse inhibition (PPI) of the startle reflex; assay type: in vivo, Sprague Dawley rats; details: for startle magnitude (main effect, ANOVA): NT69L versus DOI experiment
# Experimental: as §1, §2, §3, §4
# NT69L versus DOI. Thirty-two drug-naïve rats were administered subcutaneous (SC) injections of the following doses of NT69L, 0 (saline), 0.1, 1, or 2 mg/kg. Thirty minutes later, they were injected SC with either saline or DOI (0.5 mg/kg), a dose known to reliably disrupt PPI. Animals were tested in startle chambers thirty minutes later and PPI measured as described. After one week, animals were tested a second time during which treatment and testing procedures were the same except that rats that previously received DOI received saline and vice versa. The dose of NT69L was kept constant on both test days.
# Data and Statistical Analysis. A startle response was recorded for all stimuli presentations. […]
# monoamine receptors = details: cited from earlier work
# BB rats = test: Catalepsy bar test; assay type: in vivo, Brattleboro rats; details: 30 min after SC: haloperidol 1 mg/kg (P<0.001), clozapine 10 or 15 mg/kg, PD149163 1 or 2 mg/kg; versus saline
# Experimental: Doses selected were those that produced the greatest effect in the PPI studies. Thirty minutes after SC injections animals were tested in the using a method described by several other authors (Stanley and Glick, 1976; Costall et al., 1978; Wadenberg, 1996). This method involved placing the forepaws of each rat in an extended position over a pencil that was suspended horizontally 9 cm above the lab bench. The time spent in this position before the animal moved or corrected itself was considered a measure of catalepsy.
# Brown Norway (BN) rats = test: PPI in Brown Norway rats with low PPI; assay type: in vivo; details: acute administration
# PPI = details: sedating psychotropic drug without antipsychotic properties; cited from earlier work
# Sequence of serotonin-2A receptor (P28223 whole entry): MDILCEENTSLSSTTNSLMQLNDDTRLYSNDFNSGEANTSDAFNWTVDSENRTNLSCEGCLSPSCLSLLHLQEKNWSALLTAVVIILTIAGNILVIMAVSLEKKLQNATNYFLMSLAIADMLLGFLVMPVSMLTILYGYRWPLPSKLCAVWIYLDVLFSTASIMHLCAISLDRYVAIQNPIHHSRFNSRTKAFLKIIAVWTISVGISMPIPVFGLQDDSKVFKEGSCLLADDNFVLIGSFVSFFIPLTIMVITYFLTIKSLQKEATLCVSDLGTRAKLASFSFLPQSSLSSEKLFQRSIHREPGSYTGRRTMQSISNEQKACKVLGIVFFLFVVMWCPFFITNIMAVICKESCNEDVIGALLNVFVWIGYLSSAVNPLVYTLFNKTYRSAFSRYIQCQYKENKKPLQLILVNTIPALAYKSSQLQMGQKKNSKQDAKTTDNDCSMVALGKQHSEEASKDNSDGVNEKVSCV
compound,measurement,setting,value
CCN1CCC[C@H]1CNC(=O)c1c(O)c(Cl)cc(Cl)c1OC [raclopride],effect on PPI deficits produced by DOI,[1],do not block DOI-induced PPI deficits
CN1CC[C@@H]2CN3CCc4cccc(c43)[C@@H]2C1.O=C(O)/C=C/C(=O)O [SDZ SER-082],effect on PPI deficits produced by DOI,[1],do not block DOI-induced PPI deficits
N-methyl-Arg-Lys-Pro-L-neo-Trp-tLeu-Leu [NT69L],effect on cirazoline-induced PPI deficits,[2]; NT69L 1 mg/kg SC 30 min before cirazoline 0.7 mg/kg SC,blocked the PPI deficits produced by cirazoline
same,startle versus rats that received cirazoline and saline,"[2]; cirazoline + NT69L 1 mg/kg SC, P<0.05",significantly lower
same,"startle magnitude (main effect, ANOVA)","[2]; cirazoline experiments, PD149163 P<0.05, NT69L P<0.01",significant main effect
same,binding to alpha-1 adrenergic receptors,[3],neither PD149163 or NT69L bind
same,binding to serotonin-2A receptors,serotonin-2A receptor,neither PD149163 or NT69L bind
same,PPI versus rats that received DOI/saline,"[4]; NT69L 0.1 mg/kg SC + DOI 0.5 mg/kg SC, P<0.001",significantly greater than PPI exhibited by rats that received DOI/saline
same,PPI versus rats that received DOI/saline,"[4]; NT69L 1 mg/kg SC + DOI 0.5 mg/kg SC, P<0.05",significantly greater than PPI exhibited by rats that received DOI/saline
same,PPI versus rats that received DOI/saline,"[4]; NT69L 2 mg/kg SC + DOI 0.5 mg/kg SC, P<0.01",significantly greater than PPI exhibited by rats that received DOI/saline
same,"startle magnitude (main effect, ANOVA)",[4],no significant main effect
same,effect on DOI-induced PPI deficits,"[4]; all three active doses of NT69L (0.1, 1, 2 mg/kg SC) 30 min before DOI 0.5 mg/kg SC, tested 30 min later",blocked the PPI deficits produced by DOI
same,affinity for monoamine receptors,monoamine receptors,minimal affinity
CN1CCN(C2=Nc3cc(Cl)ccc3Nc3ccccc32)CC1 [clozapine],catalepsy: time rats remained on the bar,BB rats,no dose of clozapine or PD149163 significantly increased
O=C(CCCN1CCC(O)(c2ccc(Cl)cc2)CC1)c1ccc(F)cc1 [haloperidol],PPI in BN rats,Brown Norway (BN) rats,did not enhance PPI
same,catalepsy: time rats remained on the bar,BB rats,significantly increased the time rats remained on the bar
same,effect on PPI deficits produced by DOI,[1],do not block DOI-induced PPI deficits
"c1ccc(C2CC2)c(OCC2=NCCN2)c1 [cirazoline, cirazoline hydrochloride]",PPI of saline/cirazoline rats versus saline/saline rats,"[2]; NT69L experiment, P<0.05",significantly decreased PPI
same,PPI of saline/cirazoline rats versus saline/saline rats,"[2]; PD149163 experiment, P<0.01",significantly decreased PPI
CN1C(=O)CN=C(c2ccccc2)c2cc(Cl)ccc21 [diazepam],effect on PPI,PPI,decrease rather than facilitate PPI
O=C(c1ccc(F)cc1)C1CCN(CCn2c(=O)[nH]c3ccccc3c2=O)CC1 [ketanserin],effect on PPI deficits produced by DOI,[1],antagonize PPI deficits produced by DOI
Cc1nc2n(c(=O)c1CCN1CCC(c3noc4cc(F)ccc34)CC1)CCCC2 [risperidone],effect on PPI deficits produced by DOI,[1],antagonize PPI deficits produced by DOI
"COc1cc(CC(C)N)c(OC)cc1I.Cl (centres unmarked) [DOI, 1-(2,5-dimethoxy-4-iodophenyl)-2-aminopropane hydrochloride]",PPI of saline/DOI rats versus saline/saline rats,"[4]; DOI 0.5 mg/kg SC, P<0.001",significantly decreased PPI
same,"startle magnitude (main effect, ANOVA)",[4],no significant main effect
COc1cccc([C@H](O)C2CCN(CCc3ccc(F)cc3)CC2)c1OC [MDL100907],effect on PPI deficits produced by DOI,[1],antagonize PPI deficits produced by DOI
CC(C)NCC(O)COc1cccc2ccccc12 (centres unmarked) [propanolol],effect on PPI deficits produced by DOI,[1],do not block DOI-induced PPI deficits
